# Assay results reported in patent publication US20070093520A1, “Method of treatment of diarrhea-predominant irritable bowel syndrome in a subject” (priority 2005, published 2007).
# Tests used:
# [1] = system: diarrhea-predominant IBS subjects; experiment: 3007 Study: IBS-QOL Survey; format: in vivo, human
# Source text: Subjects were asked to complete the IBS-QOL Survey at Visits 1, 3, and 6 in order to assess possible changes of their QOL.
# (§1) Subjects were asked to complete a IBS-QOL Survey at Day 1 (Visit 5 of the core protocol), Month 6 and Month 12 (end of study or early termination) in order to assess possible changes of their QOL. The IBS-QoL survey, a 34 item IBS-specific QoL questionnaire consisting of 8 subscales (i.e., interference with activity; body image; health worry; food avoidance; social reaction; sexual; relationship; and dysphoria) was completed by patients at baseline and at later specified time points (e.g., at week 12 and at week 16 in Study 5050).
# For IBS-QOL, Baseline for subjects randomized to the cilansetron treatment group was defined as […] of core Study 3006. For subjects randomized to the placebo group of core Study 3006, Visit 5 of the core Study 3006 was assigned as the Baseline.
# Mean changes from Baseline for the IBS-QOL total score and subscale domains were summarized via descriptive statistics at […] and Visit 6 (Month 12) of Study 3007 for subjects randomized to the placebo group in core Study 3006 (or for subjects randomized to the cilansetron treatment group in the core Study 3006, at Visit 5 (Month 3), at Visit 3 (Month 6) and Visit 6 (Month 15) of Study 3007).
# For Study 3007, “baseline” was defined as the last post-Baseline visit of Study 3006 (normally Visit 5) for subjects randomized to the placebo group and as Visit 1 of core Study 3006 for subjects randomized to the cilansetron treatment group.
# The overall IBS-QOL score and the separate IBS-QOL domain scores (i.e. dysphoria, interference with activity, body image, health worry, food avoidance, social reaction, sexual, and relationship) were summarized by treatment group using descriptive statistics. The calculation of each domain score and the overall score is detailed in the user's manual. For each of the domain scores, as well as for the overall score, the change from Baseline to Endpoint was summarized descriptively. Based on the instruction from the author of the IBS-QOL questionnaire, the missing data of the IBS-QOL questionnaire were handled as follows: • If less than or equal to 20% of the items within a subscore (or total score) were missing for a subject, the subscore (or total score) was the summation of the non-missing scores for that subject; • If more than 20% of the items within a subscore (or total score) were missing, the subscore (or total score) was missing for that subject. Determination of Sample Size
# [2] = system: subjects with ROME II defined IBS-D; experiment: 5050 Study: IBS-QoL survey; format: in vivo, human; set-up: IBS-QoL subscale score: Interference with activity / IBS-QoL subscale score: Food avoidance / IBS-QoL subscale score: Sexual / IBS-QoL subscale score: Health Worry / IBS-QoL subscale score: Relationship / IBS-QoL subscale score: Body Image / IBS-QoL subscale score: Social Reaction / IBS-QoL subscale score: Dysphoria: scale not given here; conditions: Study 5050
# Experimental: The 5050 Study was a double-blind, randomized, placebo-controlled study to evaluate the long-term safety and tolerability of cilansetron 2 mg taken on an as needed (prn) basis for 1 year by male and female subjects with ROME II defined IBS-D. The study was performed in 68 centers. Patients were randomized in a 3:1 ratio to receive either cilansetron 2 mg prn or placebo, up to 3 times a day. Safety parameters were explored by comparing the double-blind groups, average daily doses and treatment exposure. Patient visits were scheduled as follows: Visit 1 (pretreatment), Visit 2 (Day 1), Visit 3 (Month 1), Visit 4 (Month 3), Visit 5 (Month 6), Visit 6 (Month 9), and Visit 7 (Month 12). Safety assessments included: adverse events (AEs)/serious adverse events (SAES); laboratory parameters (pretreatment visit and at Months 1, 6, and 12); electrocardiograms (pretreatment visit and at Months 1, 6, and 12); vital signs (at each visit); physical examinations and body weight (pretreatment visit and at Month 12); prior and concomitant medication use (each visit and/or through spontaneous reporting); stool cards for occult blood (every visit except Visit 1). The number of tablets taken per day was recorded daily through a validated interactive voice response system. Patients who met the ROME criteria for IBS and ROME II criteria for the diarrhea predominant subpopulation were included in the study. Patients with acute colitis of any etiology, history of chronic colitis of any etiology, or a history of intestinal obstruction, stricture, toxic megacolon, gastrointestinal (GI) perforation, or fecal impaction were excluded from the study.
# as §1
# [3] = Table 10.5, time point not stated
structure (smiles),measurement,setting,value
"Cc1nccn1C[C@H]1CCc2c(c3cccc4c3n2CCC4)C1=O [cilansetron, (R)-(−)-4,5,6,8,9,10-hexahydro-10-[(2-methyl-1H-imidazol-1-yl)methyl]-11H-pyrido-[3,2,1-jk]-carbazol-11-one]",QOL after the start of cilansetron treatment,"[1]; Study 3007, P/C",An improvement was observed
same,improvement of mean IBS-QOL total score from Baseline,"[1]; Study 3007, at Endpoint, C/C",20.1
same,mean IBS-QOL total score,"[1]; Study 3007, at Endpoint, C/C",70.7
same,improvement of mean IBS-QOL total score from Baseline,"[1]; Study 3007, at Endpoint, P/C",8.9
same,mean IBS-QOL total score,"[1]; Study 3007, at Endpoint, P/C",70.9
same,mean IBS-QOL total score,"[1]; Study 3007, at Endpoint, overall",70.8
same,mean IBS-QOL total score,"[1]; at the start of Study 3007 (after 12 weeks of Study 3006), C/C",69.5
same,beneficial effect on the QOL observed during Study 3006,"[1]; during Study 3007, C/C",maintained
same,IBS-QoL subscale score: Body Image,[2]; [3],61.7
same,IBS-QoL subscale score: Dysphoria,[2]; [3],47.4
same,IBS-QoL subscale score: Food avoidance,[2]; [3],38.3
same,IBS-QoL subscale score: Health Worry,[2]; [3],65.3
same,IBS-QoL subscale score: Interference with activity,[2]; [3],41.1
same,IBS-QoL subscale score: Relationship,[2]; [3],62.5
same,IBS-QoL subscale score: Sexual,[2]; [3],72.2
same,IBS-QoL subscale score: Social Reaction,[2]; [3],58.3
same,"change from baseline of IBS-QoL total score, interference with activity, body image, sexual score and dysphoria",[2]; p<0.050,significant improvement
